Calls of active or inactive are those of the source. The rule behind the calls is not given here.
tested on: Rattus norvegicus; test: Antiimplantation activity in Sprague-Dawley rat uterus at 5 mg/kg, po for 7 days measured on day 11; format: functional; conditions: not given

SMILES	Activity [%]
c1ccc2c(c1)CCCc1c-2n(CCc2nnn(CCN3CCCC3)n2)c2ccccc12	67

molecular target: T1, Estrogen receptor (Rattus norvegicus) (UniProt P06211); test: Displacement of [3H]estradiol from estrogen receptor in uterine cytosol of estradiol primed rat relative to estradiol; conditions: Uterus
T1 sequence (whole entry): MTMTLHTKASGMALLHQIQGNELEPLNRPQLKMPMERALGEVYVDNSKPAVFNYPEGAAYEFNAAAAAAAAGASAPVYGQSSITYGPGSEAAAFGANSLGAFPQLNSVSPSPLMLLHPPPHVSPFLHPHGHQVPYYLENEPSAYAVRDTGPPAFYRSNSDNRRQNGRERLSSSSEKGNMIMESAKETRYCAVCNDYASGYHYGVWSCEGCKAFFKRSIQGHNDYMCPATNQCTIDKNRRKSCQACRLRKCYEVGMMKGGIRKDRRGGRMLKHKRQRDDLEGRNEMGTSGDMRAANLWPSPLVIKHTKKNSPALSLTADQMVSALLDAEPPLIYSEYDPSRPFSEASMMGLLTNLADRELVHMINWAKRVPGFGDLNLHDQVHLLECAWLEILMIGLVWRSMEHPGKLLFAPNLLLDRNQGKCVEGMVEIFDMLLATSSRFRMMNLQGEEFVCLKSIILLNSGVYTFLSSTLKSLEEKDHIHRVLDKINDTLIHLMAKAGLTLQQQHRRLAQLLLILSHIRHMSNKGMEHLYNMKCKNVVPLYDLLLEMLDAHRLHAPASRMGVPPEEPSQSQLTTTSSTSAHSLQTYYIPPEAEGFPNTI

SMILES	RBA [%]
c1ccc2c(c1)SCCc1c-2n(CCc2nnn(CCN3CCCCC3)n2)c2ccccc12	0.0125
c1ccc2c(c1)SCCc1c-2n(CCc2nnn(CCN3CCCC3)n2)c2ccccc12	< 0.001
c1ccc2c(c1)OCCc1c-2n(CCc2nnnn2CCN2CCCCC2)c2ccccc12	< 0.001
c1ccc2c(c1)OCCc1c-2n(CCc2nnnn2CCN2CCCC2)c2ccccc12	< 0.001
c1ccc2c(c1)SCCc1c-2n(CCc2nnnn2CCN2CCCCC2)c2ccccc12	< 0.001
c1ccc2c(c1)SCCc1c-2n(CCc2nnnn2CCN2CCCC2)c2ccccc12	< 0.001
c1ccc2c(c1)CCCc1c-2n(CCc2nnn(CCN3CCCCC3)n2)c2ccccc12	0.011
c1ccc2c(c1)CCCc1c-2n(CCc2nnnn2CCN2CCCC2)c2ccccc12	0.0125
c1ccc2c(c1)CCCc1c-2n(CCc2nnn(CCN3CCCC3)n2)c2ccccc12	0.16
c1ccc2c(c1)OCCc1c-2n(CCc2nnn(CCN3CCCCC3)n2)c2ccccc12	0.011
c1ccc2c(c1)CCCc1c-2n(CCc2nnnn2CCN2CCCCC2)c2ccccc12	< 0.001
c1ccc2c(c1)OCCc1c-2n(CCc2nnn(CCN3CCCC3)n2)c2ccccc12	0.04

tested on: Rattus norvegicus; test: Estrogenic activity in ovariectomised Sprague-Dawley rat assessed as uterine weight gain at 10 mg/kg, po once daily for three days after 24 hrs of last treatment relative to control; format: functional; conditions: not given

SMILES	Activity [%]
c1ccc2c(c1)SCCc1c-2n(CCc2nnn(CCN3CCCC3)n2)c2ccccc12	25
c1ccc2c(c1)OCCc1c-2n(CCc2nnnn2CCN2CCCCC2)c2ccccc12	44
c1ccc2c(c1)OCCc1c-2n(CCc2nnnn2CCN2CCCC2)c2ccccc12	40
c1ccc2c(c1)SCCc1c-2n(CCc2nnnn2CCN2CCCCC2)c2ccccc12	23
c1ccc2c(c1)SCCc1c-2n(CCc2nnnn2CCN2CCCC2)c2ccccc12	39
c1ccc2c(c1)CCCc1c-2n(CCc2nnnn2CCN2CCCC2)c2ccccc12	61
c1ccc2c(c1)CCCc1c-2n(CCc2nnn(CCN3CCCC3)n2)c2ccccc12	33
c1ccc2c(c1)OCCc1c-2n(CCc2nnn(CCN3CCCCC3)n2)c2ccccc12	28
c1ccc2c(c1)CCCc1c-2n(CCc2nnnn2CCN2CCCCC2)c2ccccc12	40
c1ccc2c(c1)OCCc1c-2n(CCc2nnn(CCN3CCCC3)n2)c2ccccc12	29

tested on: Rattus norvegicus; test: Antiestrogenic activity in ovariectomised Sprague-Dawley rat assessed as inhibition of estradiol-induced uterine weight at 10 mg/kg, po once daily for three days measured on day 4 relative to control; format: functional; conditions: not given

SMILES	inhibition in vivo at 10 mg/kg [%]
c1ccc2c(c1)SCCc1c-2n(CCc2nnn(CCN3CCCCC3)n2)c2ccccc12	6
c1ccc2c(c1)SCCc1c-2n(CCc2nnn(CCN3CCCC3)n2)c2ccccc12	1
c1ccc2c(c1)OCCc1c-2n(CCc2nnnn2CCN2CCCCC2)c2ccccc12	1
c1ccc2c(c1)SCCc1c-2n(CCc2nnnn2CCN2CCCCC2)c2ccccc12	2
c1ccc2c(c1)CCCc1c-2n(CCc2nnnn2CCN2CCCC2)c2ccccc12	7
c1ccc2c(c1)CCCc1c-2n(CCc2nnn(CCN3CCCC3)n2)c2ccccc12	3
c1ccc2c(c1)OCCc1c-2n(CCc2nnn(CCN3CCCC3)n2)c2ccccc12	12

tested on: Rattus norvegicus; test: Antiimplantation activity in Sprague-Dawley rat uterus at 10 mg/kg, po for 7 days measured on day 11; format: functional; conditions: not given

SMILES	Activity
c1ccc2c(c1)SCCc1c-2n(CCc2nnn(CCN3CCCCC3)n2)c2ccccc12	inactive
c1ccc2c(c1)SCCc1c-2n(CCc2nnn(CCN3CCCC3)n2)c2ccccc12	inactive
c1ccc2c(c1)OCCc1c-2n(CCc2nnnn2CCN2CCCCC2)c2ccccc12	inactive
c1ccc2c(c1)OCCc1c-2n(CCc2nnnn2CCN2CCCC2)c2ccccc12	inactive
c1ccc2c(c1)SCCc1c-2n(CCc2nnnn2CCN2CCCCC2)c2ccccc12	inactive
c1ccc2c(c1)SCCc1c-2n(CCc2nnnn2CCN2CCCC2)c2ccccc12	inactive
c1ccc2c(c1)CCCc1c-2n(CCc2nnn(CCN3CCCCC3)n2)c2ccccc12	inactive
c1ccc2c(c1)CCCc1c-2n(CCc2nnnn2CCN2CCCC2)c2ccccc12	67%
c1ccc2c(c1)CCCc1c-2n(CCc2nnn(CCN3CCCC3)n2)c2ccccc12	100%
c1ccc2c(c1)OCCc1c-2n(CCc2nnn(CCN3CCCCC3)n2)c2ccccc12	inactive
c1ccc2c(c1)CCCc1c-2n(CCc2nnnn2CCN2CCCCC2)c2ccccc12	inactive
c1ccc2c(c1)OCCc1c-2n(CCc2nnn(CCN3CCCC3)n2)c2ccccc12	inactive

Source: ChEMBL document CHEMBL1158177, “Synthesis and structure guided evaluation of estrogen agonist and antagonist activities of some new tetrazolyl indole derivatives” (2008)
